The target of assay [1] is Voltage-gated inwardly rectifying potassium channel KCNH2 (Homo sapiens, UniProt Q12809). Put plainly: Inhibition of human ERG by MK499 binding assay.
Assay [2] concerns Escherichia coli. The assay is described as follows: Antimicrobial activity against Escherichia coli ATCC 25922 by micro broth dilution or agar based method. The assay is classed as functional. The settings on record: Escherichia coli, ATCC 25922; read-out: MIC. Background: Dilution methods test growth across graded concentrations, often in twofold steps.
Assay [3] relates to Streptococcus pneumoniae. The assay is described as follows: Antimicrobial activity against Streptococcus pneumoniae IID554 by micro broth dilution or agar based method. Type of assay: functional. The settings on record: Streptococcus pneumoniae, IID554; read-out: MIC.
The test system of assay [4] is Haemophilus influenzae. The assay is described as follows: Antimicrobial activity against Haemophilus influenzae ATCC 49247 by micro broth dilution or agar based method. Type of assay: functional.
For assay [5], the system named is Staphylococcus aureus. The assay is described as follows: Antimicrobial activity against Staphylococcus aureus Smith by micro broth dilution or agar based method. Type of assay: functional. The settings on record: Staphylococcus aureus, Smith; read-out: MIC.
Assay [6] concerns Acinetobacter baumannii. Put plainly: Antimicrobial activity against Acinetobacter baumannii IID876 by micro broth dilution or agar based method. The assay is classed as functional. The settings on record: Acinetobacter baumannii, IID876; read-out: MIC.
The test system of assay [7] is Enterococcus faecalis. Put plainly: Antimicrobial activity against Enterococcus faecalis ATCC 29212 MB by micro broth dilution or agar based method. Type of assay: functional. The settings on record: Enterococcus faecalis, ATCC 29212 MB; read-out: MIC.
Assay [8] concerns Staphylococcus aureus. The assay is described as follows: Ratio of MIC for quinolone-resistant Staphylococcus aureus MS5935 to MIC for quinolone-[…]. Type of assay: functional.
For assay [9], the system named is Pseudomonas aeruginosa. Put plainly: Antimicrobial activity against Pseudomonas aeruginosa PAO1 by micro broth dilution or agar based method. Type of assay: functional. The settings on record: Pseudomonas aeruginosa, PAO1; read-out: MIC.
Assay [10] has as its system Moraxella catarrhalis. The assay is described as follows: Antimicrobial activity against Moraxella catarrhalis ATCC 25238 by micro broth dilution or agar based method. The assay is classed as functional.
The subject of assay [11] is Enterococcus faecium. Put plainly: Antimicrobial activity against vancomycin-resistant Enterococcus faecium A2373 expressing VanA by micro broth dilution or agar based method. The assay is classed as functional. The settings on record: Enterococcus faecium, A2373; read-out: MIC.

Converted amounts (≈) assume the structure as drawn. Some results are limits rather than exact numbers.

Sequence of Voltage-gated inwardly rectifying potassium channel KCNH2 (Q12809 whole entry): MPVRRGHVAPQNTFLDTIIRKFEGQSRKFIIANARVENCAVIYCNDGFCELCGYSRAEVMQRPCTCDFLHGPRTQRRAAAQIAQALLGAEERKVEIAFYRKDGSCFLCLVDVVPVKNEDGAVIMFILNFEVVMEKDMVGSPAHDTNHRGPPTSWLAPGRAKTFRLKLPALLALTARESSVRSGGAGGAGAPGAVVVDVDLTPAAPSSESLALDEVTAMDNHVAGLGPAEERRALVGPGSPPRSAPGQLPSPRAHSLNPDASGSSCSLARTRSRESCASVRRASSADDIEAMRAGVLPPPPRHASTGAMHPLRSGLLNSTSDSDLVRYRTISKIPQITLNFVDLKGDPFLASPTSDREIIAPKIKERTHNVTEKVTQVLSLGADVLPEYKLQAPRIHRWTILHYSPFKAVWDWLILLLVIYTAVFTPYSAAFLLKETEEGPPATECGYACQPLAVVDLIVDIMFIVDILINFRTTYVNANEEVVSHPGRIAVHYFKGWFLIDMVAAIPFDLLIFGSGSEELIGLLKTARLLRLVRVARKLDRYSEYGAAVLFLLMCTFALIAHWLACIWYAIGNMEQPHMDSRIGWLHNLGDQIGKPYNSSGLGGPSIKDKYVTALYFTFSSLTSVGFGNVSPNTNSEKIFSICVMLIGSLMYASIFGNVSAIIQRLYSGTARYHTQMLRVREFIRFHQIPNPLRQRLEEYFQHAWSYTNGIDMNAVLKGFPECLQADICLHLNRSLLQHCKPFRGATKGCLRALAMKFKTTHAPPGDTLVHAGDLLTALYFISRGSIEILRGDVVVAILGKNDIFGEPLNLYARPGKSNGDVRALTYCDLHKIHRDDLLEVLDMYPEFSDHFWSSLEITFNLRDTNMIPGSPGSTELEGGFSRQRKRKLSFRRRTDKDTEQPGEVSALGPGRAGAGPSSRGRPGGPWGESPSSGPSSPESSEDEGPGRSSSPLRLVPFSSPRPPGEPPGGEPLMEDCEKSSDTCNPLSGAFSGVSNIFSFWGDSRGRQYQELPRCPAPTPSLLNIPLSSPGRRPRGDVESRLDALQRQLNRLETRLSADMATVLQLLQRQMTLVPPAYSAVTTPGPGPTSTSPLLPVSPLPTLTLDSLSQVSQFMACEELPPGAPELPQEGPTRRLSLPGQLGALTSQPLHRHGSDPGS

With `Cc1cc(=O)n2c3c(c(F)cnc13)[C@](O)(CC13CCC(NCc4ccc5c(n4)NC(=O)CO5)(CC1)CO3)C2`, in [1], the IC50 was above 60 µM. The MIC in assay [2] turned out to be 8 µg/mL (≈ 15.3 µM); in assay [3] it was 1 µg/mL (≈ 1.92 µM); in assay [4] it was 4 µg/mL (≈ 7.67 µM); in assay [5], 0.5 µg/mL (≈ 0.959 µM); in [6] it was 0.5 µg/mL (≈ 0.959 µM); in [7] it was 4 µg/mL (≈ 7.67 µM). In addition, the MIC in assay [9] was 32 µg/mL (≈ 61.4 µM); in assay [10], 0.5 µg/mL (≈ 0.959 µM); in assay [11], 8 µg/mL (≈ 15.3 µM). Further, the Ratio in [8] is below 4.
In assay [1], `O=C1COc2ccc(CNC34CCC(CC5(O)Cn6c(=O)cc(Cl)c7ncc(F)c5c76)(CC3)OC4)nc2N1` (racemic) registered an IC50 above 60 µM. Also, the MIC was determined as 8 µg/mL (≈ 14.8 µM) in assay [2]; 2 µg/mL (≈ 3.69 µM) in assay [3]; 8 µg/mL (≈ 14.8 µM) in assay [4]; 2 µg/mL (≈ 3.69 µM) in [5]; 8 µg/mL (≈ 14.8 µM) in [6]; 8 µg/mL (≈ 14.8 µM) in assay [7]. For the same compound, the MIC came to 32 µg/mL (≈ 59 µM) in assay [9], 1 µg/mL (≈ 1.85 µM) in [10] and 32 µg/mL (≈ 59 µM) in assay [11]. Further, the Ratio in assay [8] was below 4.
In the case of `Cc1cc(=O)n2c3c(c(F)cnc13)[C@@](O)(CC13CCC(NCc4ccc5c(n4)NC(=O)CO5)(CC1)CO3)C2`, in assay [1], the IC50 was above 60 µM. Also, the MIC in [2] came out at 32 µg/mL (≈ 61.4 µM); in assay [3] it was 8 µg/mL (≈ 15.3 µM); in assay [4] it was 16 µg/mL (≈ 30.7 µM); in assay [5], 8 µg/mL (≈ 15.3 µM); in [6], 2 µg/mL (≈ 3.83 µM); in assay [7], 16 µg/mL (≈ 30.7 µM). Further, the MIC in assay [9] amounted to 32 µg/mL (≈ 61.4 µM); in assay [10], 2 µg/mL (≈ 3.83 µM); in assay [11] it was 32 µg/mL (≈ 61.4 µM). Besides, the Ratio in assay [8] is reported as below 4.
For `O=C1COc2ccc(CNC34CCC(CC5(O)Cn6c(=O)c(Cl)cc7ncc(F)c5c76)(CC3)OC4)nc2N1` (racemic), the IC50 in assay [1] was above 60 µM. The MIC in assay [2] amounted to 16 µg/mL (≈ 29.5 µM); in assay [3], 2 µg/mL (≈ 3.69 µM); in [4], 8 µg/mL (≈ 14.8 µM); in assay [5], 2 µg/mL (≈ 3.69 µM); in [6], 16 µg/mL (≈ 29.5 µM); in [7], 8 µg/mL (≈ 14.8 µM). The results for the MIC in assay [9], in [10] and in assay [11] were 32 µg/mL (≈ 59 µM), 2 µg/mL (≈ 3.69 µM) and 32 µg/mL (≈ 59 µM), respectively. Further, the Ratio in assay [8] is below 4.
`COc1ccc2ncc(F)c(C[C@H](O)C34CCC(NCc5ccc6c(n5)NC(=O)CO6)(CC3)CO4)c2n1`: the MIC in assay [2] stood at 2 µg/mL (≈ 3.93 µM); in assay [3], 0.05 µg/mL (≈ 0.0981 µM); in assay [4] it was 0.5 µg/mL (≈ 0.981 µM); in [5], 0.02 µg/mL (≈ 0.0393 µM); in [6], 0.5 µg/mL (≈ 0.981 µM); in [7] it was 0.5 µg/mL (≈ 0.981 µM). Further, the MIC in assay [9] worked out at 8 µg/mL (≈ 15.7 µM); in assay [10] it was 0.015 µg/mL (≈ 0.0294 µM); in assay [11], 0.5 µg/mL (≈ 0.981 µM).
Consider `O=C1COc2ccc(CNC34CCC(C[C@@]5(O)Cn6c(=O)c(F)cc7ncc(F)c5c76)(CC3)OC4)nc2N1`, for which, in [1], the IC50 is above 60 µM. Besides, the MIC in assay [2] stood at 16 µg/mL (≈ 30.4 µM); in assay [3], 4 µg/mL (≈ 7.61 µM); in assay [4] it was 8 µg/mL (≈ 15.2 µM); in [5], 4 µg/mL (≈ 7.61 µM); in assay [6] it was 32 µg/mL (≈ 60.9 µM); in assay [7], 16 µg/mL (≈ 30.4 µM). For the same compound, the MIC turned out to be 32 µg/mL (≈ 60.9 µM) in [9], 1 µg/mL (≈ 1.9 µM) in assay [10] and 32 µg/mL (≈ 60.9 µM) in assay [11]. For the same compound, the Ratio in [8] is below 4.
In assay [1], `O=C1COc2ccc(CNC34CCC(C[C@]5(O)Cn6c(=O)c(F)cc7ncc(F)c5c76)(CC3)OC4)nc2N1` returned an IC50 above 60 µM. Besides, the MIC in assay [2] is 4 µg/mL (≈ 7.61 µM); in assay [3] it was 0.5 µg/mL (≈ 0.951 µM); in assay [4], 1 µg/mL (≈ 1.9 µM); in assay [5], 0.25 µg/mL (≈ 0.476 µM); in assay [6] it was 4 µg/mL (≈ 7.61 µM); in [7], 2 µg/mL (≈ 3.81 µM). Moreover, the MIC in [9] was 16 µg/mL (≈ 30.4 µM); in assay [10], 0.25 µg/mL (≈ 0.476 µM); in assay [11] it was 4 µg/mL (≈ 7.61 µM). Further, the Ratio in [8] was below 4.
With `O=C1COc2ccc(CNC34CCC(C[C@]5(O)Cn6c(=O)ccc7nc(Cl)c(F)c5c76)(CC3)OC4)nc2N1`, the MIC in assay [2] was determined as 32 µg/mL (≈ 59 µM); in assay [3], 8 µg/mL (≈ 14.8 µM); in assay [5], 4 µg/mL (≈ 7.38 µM); in assay [6], 32 µg/mL (≈ 59 µM); in [7] it was 16 µg/mL (≈ 29.5 µM); in [9] it was 32 µg/mL (≈ 59 µM). For the same compound, the MIC in assay [10] was 4 µg/mL (≈ 7.38 µM); in assay [11] it was 32 µg/mL (≈ 59 µM).

Usually IC50 stands for the concentration that inhibits the measured activity by half.

The values above are taken from ChEMBL document CHEMBL3400001, “Tricyclic 1,5-naphthyridinone oxabicyclooctane-linked novel bacterial topoisomerase inhibitors as broad-spectrum antibacterial agents-SAR of left-hand-side moiety (Part-2)” (Bioorg Med Chem Lett, 2015).
